Source: publication PMC7827406, “Structure–Activity Relationship (SAR) Study of Spautin-1 to Entail the Discovery of Novel NEK4 Inhibitors” (International Journal of Molecular Sciences, 2021)
Read-outs that look alike come from different tables or passages of the source.

Key:
Assay in all cases: biochemical
Set-up in all cases: Eurofins KinaseProfiler full panel at Km ATP, residual kinase activity (%) relative to DMSO
[1] = target: T1, Haspin(h) (Homo sapiens, UniProt Q8TF76)
T1 sequence (Q8TF76 1-798): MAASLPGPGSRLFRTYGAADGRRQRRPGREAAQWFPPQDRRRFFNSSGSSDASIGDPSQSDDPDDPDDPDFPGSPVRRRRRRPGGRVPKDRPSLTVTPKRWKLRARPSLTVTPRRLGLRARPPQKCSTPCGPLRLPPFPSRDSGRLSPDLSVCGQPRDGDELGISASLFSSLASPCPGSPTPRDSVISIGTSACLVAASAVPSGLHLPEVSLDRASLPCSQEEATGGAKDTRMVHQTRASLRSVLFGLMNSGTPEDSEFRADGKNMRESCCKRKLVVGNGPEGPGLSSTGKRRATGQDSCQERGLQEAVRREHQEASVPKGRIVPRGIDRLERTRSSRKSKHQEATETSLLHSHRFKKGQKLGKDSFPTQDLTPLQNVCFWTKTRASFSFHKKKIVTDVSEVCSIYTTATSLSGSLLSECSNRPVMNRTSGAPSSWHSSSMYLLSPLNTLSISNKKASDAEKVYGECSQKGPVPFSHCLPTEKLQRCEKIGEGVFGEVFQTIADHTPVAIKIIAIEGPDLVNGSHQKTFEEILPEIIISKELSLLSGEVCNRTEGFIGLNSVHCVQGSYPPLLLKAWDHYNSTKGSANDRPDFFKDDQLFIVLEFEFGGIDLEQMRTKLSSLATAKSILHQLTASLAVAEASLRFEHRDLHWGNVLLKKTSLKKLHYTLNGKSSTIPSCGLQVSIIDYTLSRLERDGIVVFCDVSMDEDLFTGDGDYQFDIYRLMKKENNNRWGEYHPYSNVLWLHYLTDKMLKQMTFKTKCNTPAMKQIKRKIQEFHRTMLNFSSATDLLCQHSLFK
Method: (§1) Eurofins performed a “Full KP Panel [Km ATP], KinaseProfile” which contains 429 radiometric kinase activity assays. The remaining kinase activity (%) was determined after treatment with the compounds at a concentration of 10 µM (Cfr. supporting information). Since we could not confirm the interaction between Spautin-1 analogues and USP13, a kinase screening was performed using a set of four compounds (Spautin-1 and three analogues) to discover off-targets and identify kinases that are potentially responsible for the reduction in cell viability observed in our screen (Table 2). The KINOMEscan from Eurofins was performed (see Table S1). This screen consists of a competitive binding assay in which the DNA-tagged kinase is incubated with one of the compounds in the presence of immobilized active site binding ligands. Binding of the compounds to the kinase hampers the binding of the kinase to the ligands and this inhibition was quantified by qPCR. The residual kinase activity, which represents the percentage of kinase attached to the immobilized ligands, was determined for 428 kinases at a standard screening concentration of 10 µM of the compounds dissolved in DMSO [61].

[2] = target: T2, IRR(h) (Homo sapiens, UniProt P14616)
T2 construct: gene INSRR
Method: as §1

[3] = target: T3, ALK6(h) (Homo sapiens, UniProt O00238)
T3 construct: gene BMPR1B
Method: as §1

[4] = target: Ret(V804M)(h) (Homo sapiens, UniProt P07949, V804M)
Method: as §1

[5] = target: T4, EphA3(h) (Homo sapiens, UniProt P29320)
T4 sequence (P29320 1-983): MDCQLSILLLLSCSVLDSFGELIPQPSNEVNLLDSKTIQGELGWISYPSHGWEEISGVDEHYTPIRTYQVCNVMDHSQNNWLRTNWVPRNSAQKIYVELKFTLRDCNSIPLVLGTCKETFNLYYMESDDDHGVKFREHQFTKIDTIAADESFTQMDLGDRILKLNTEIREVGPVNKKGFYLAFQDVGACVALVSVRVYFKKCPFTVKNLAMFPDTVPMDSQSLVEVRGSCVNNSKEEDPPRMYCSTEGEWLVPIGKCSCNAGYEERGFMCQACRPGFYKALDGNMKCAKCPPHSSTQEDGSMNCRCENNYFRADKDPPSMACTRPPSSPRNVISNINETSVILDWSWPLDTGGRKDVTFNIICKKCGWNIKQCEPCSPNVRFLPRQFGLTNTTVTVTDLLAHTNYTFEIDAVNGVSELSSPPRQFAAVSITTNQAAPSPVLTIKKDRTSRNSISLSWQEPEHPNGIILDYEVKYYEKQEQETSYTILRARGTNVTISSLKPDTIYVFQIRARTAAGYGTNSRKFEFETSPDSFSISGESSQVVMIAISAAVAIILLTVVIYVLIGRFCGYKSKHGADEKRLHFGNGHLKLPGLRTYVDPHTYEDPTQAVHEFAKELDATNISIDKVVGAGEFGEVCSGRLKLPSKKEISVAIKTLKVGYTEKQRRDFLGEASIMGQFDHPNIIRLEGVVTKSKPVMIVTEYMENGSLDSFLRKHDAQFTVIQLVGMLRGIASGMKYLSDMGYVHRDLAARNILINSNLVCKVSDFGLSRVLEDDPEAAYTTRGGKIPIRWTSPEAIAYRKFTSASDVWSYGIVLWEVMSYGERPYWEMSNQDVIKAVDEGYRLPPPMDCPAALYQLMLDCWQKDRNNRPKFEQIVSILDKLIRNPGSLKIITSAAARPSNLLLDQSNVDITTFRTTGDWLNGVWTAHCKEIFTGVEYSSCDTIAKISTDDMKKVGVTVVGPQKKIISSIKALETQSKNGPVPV
Method: as §1

[6] = target: CSK(h) (Homo sapiens, UniProt P41240)
Method: as §1

[7] = target: T5, GSK3α(h) (Homo sapiens, UniProt P49840)
T5 construct: gene GSK3A
Method: as §1

[8] = target: Plk1(h) (Homo sapiens, UniProt P53350)
Method: as §1

[9] = read-out: Residual activity (%) 5ay
[10] = read-out: Residual activity (%) Spautin-1 5aa
[11] = read-out: Residual activity (%) 5at
[12] = read-out: Residual activity (%) 5as

T2 sequence (P14616 whole entry): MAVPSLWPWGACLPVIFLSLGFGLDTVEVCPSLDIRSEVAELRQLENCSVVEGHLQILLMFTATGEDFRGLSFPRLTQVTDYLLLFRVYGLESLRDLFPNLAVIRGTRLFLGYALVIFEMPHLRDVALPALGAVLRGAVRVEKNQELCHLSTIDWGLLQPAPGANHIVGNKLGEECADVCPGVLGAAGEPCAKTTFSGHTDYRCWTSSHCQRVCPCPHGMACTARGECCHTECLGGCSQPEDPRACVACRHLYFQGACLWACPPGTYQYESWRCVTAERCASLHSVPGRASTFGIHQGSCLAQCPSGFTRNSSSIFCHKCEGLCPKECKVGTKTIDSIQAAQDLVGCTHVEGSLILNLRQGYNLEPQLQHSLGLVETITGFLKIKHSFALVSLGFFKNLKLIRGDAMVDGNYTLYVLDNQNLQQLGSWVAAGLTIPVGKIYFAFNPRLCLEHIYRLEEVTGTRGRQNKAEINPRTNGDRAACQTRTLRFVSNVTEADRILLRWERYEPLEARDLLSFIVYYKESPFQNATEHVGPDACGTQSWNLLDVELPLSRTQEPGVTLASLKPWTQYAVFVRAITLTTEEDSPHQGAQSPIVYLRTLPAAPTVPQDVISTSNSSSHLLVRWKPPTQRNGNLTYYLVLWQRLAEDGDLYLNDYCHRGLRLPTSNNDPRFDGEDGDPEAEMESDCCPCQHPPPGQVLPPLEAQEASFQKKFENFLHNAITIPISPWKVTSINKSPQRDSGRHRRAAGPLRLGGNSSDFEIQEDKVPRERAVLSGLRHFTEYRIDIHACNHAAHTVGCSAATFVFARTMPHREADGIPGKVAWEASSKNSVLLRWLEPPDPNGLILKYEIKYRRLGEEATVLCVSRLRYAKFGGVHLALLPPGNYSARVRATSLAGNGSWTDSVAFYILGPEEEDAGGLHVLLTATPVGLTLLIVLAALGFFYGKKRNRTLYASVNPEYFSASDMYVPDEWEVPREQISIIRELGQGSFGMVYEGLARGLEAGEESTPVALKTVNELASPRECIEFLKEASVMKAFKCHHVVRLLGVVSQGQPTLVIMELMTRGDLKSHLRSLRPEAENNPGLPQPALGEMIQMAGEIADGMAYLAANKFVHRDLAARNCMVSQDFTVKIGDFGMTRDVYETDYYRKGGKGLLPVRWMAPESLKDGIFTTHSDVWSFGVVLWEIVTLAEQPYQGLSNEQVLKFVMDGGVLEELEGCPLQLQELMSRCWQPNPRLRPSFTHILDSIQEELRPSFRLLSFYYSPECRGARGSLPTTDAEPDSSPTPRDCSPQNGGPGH
Plk1(h), sequence (P53350 whole entry): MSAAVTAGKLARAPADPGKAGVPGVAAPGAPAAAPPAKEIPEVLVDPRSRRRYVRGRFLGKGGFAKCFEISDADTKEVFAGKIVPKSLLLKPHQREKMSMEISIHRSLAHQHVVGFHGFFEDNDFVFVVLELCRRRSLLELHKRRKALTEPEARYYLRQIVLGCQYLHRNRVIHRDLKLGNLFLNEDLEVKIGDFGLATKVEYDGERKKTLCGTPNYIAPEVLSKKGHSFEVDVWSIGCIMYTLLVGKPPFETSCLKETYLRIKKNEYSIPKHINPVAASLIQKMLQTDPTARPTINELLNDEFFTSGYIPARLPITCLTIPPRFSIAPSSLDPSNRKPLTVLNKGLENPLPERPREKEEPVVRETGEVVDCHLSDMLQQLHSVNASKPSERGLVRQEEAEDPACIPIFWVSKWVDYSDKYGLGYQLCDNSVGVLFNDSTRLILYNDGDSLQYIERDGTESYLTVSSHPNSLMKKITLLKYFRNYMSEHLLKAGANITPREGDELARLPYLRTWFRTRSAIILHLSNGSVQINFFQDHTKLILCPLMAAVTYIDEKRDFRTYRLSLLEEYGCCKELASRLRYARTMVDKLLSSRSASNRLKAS
T5 sequence (P49840 whole entry): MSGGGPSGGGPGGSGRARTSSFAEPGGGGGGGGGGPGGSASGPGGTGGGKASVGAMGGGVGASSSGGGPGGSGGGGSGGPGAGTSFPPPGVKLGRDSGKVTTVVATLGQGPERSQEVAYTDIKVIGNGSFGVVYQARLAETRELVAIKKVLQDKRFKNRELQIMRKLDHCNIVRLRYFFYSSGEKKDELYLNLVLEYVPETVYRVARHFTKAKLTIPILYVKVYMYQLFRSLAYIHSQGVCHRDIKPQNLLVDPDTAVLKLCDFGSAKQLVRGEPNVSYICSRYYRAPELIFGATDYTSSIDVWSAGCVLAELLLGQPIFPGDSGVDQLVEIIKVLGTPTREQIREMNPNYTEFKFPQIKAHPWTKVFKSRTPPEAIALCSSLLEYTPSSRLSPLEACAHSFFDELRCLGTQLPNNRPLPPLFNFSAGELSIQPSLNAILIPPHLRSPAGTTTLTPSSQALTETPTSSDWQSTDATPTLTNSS
CSK(h), sequence (P41240 whole entry): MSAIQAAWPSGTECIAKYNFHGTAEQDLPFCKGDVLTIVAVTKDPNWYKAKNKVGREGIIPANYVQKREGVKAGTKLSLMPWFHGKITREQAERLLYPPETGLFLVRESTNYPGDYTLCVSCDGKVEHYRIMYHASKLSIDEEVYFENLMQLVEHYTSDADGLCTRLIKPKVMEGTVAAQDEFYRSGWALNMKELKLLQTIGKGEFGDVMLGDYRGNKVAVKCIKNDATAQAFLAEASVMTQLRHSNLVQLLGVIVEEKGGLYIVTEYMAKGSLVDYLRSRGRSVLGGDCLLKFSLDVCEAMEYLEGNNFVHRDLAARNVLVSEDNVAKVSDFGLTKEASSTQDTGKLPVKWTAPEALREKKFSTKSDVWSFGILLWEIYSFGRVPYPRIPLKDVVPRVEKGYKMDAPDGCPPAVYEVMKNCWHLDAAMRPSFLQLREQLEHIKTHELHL
Ret(V804M)(h), sequence (P07949 whole entry V804M): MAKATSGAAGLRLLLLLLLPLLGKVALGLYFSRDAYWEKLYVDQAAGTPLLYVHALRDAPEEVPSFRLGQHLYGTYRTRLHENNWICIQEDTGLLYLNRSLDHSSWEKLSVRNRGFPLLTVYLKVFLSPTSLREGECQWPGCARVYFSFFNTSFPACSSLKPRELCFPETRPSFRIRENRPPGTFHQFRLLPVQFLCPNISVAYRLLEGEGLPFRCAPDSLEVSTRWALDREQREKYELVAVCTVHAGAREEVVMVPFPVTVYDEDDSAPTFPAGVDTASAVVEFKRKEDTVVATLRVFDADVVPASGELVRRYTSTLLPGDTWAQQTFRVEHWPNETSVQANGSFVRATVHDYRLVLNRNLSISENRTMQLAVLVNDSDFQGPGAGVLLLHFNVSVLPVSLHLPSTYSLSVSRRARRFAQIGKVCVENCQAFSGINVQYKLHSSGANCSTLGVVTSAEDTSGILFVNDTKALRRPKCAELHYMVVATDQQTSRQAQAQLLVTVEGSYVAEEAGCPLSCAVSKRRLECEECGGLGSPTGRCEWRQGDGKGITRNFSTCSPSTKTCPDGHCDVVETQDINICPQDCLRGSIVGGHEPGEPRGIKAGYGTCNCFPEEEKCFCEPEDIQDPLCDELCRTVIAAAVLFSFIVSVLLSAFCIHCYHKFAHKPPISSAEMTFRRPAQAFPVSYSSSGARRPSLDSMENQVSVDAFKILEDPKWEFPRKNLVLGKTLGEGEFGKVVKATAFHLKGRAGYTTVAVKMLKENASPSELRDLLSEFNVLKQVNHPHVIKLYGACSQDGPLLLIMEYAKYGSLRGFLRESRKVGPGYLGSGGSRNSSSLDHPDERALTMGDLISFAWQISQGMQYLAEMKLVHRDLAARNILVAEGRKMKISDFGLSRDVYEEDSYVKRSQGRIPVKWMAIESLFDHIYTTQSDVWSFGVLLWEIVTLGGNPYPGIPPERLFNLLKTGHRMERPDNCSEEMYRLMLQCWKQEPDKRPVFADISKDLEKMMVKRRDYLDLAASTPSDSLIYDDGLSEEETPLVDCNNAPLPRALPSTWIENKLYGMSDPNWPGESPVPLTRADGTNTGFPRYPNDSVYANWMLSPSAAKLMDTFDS
T3 sequence (O00238 whole entry): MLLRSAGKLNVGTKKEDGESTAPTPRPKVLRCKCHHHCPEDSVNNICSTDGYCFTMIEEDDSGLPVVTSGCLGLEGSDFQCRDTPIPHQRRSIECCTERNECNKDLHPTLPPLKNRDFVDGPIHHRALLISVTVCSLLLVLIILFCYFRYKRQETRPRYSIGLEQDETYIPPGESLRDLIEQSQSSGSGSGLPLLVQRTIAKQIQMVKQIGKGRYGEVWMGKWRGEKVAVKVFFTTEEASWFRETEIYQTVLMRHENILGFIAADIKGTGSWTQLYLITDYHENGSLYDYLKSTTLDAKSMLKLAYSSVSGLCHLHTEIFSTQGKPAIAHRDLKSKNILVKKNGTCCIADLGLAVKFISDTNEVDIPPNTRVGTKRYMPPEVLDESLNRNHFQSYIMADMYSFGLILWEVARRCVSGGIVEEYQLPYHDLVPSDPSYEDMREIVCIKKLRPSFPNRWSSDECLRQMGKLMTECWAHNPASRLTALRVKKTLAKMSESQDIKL

Structure (SMILES): COc1ccc2ncnc(Nc3cccc(F)c3)c2c1 [5ay, N-(3-Fluorophenyl)-6-Methoxy-4-Quinazolinamine]
- remaining activity at 10 µM [1, 9]: 36%
- remaining activity at 10 µM [2, 9]: 99%
- remaining activity at 10 µM [3, 9]: 87%
- remaining activity at 10 µM [4, 9]: 102%
- remaining activity at 10 µM [5, 9]: 110%
- remaining activity at 10 µM [6, 9]: 91%
- remaining activity at 10 µM [7, 9]: 69%
- remaining activity at 10 µM [8, 9]: 96%

Structure (SMILES): Fc1ccc(CNc2ncnc3ccc(F)cc23)cc1 [5aa, 6-Fluoro-N-(4-fluorobenzyl)-4-Quinazolinamine]
- remaining activity at 10 µM [1, 10]: 71%
- remaining activity at 10 µM [2, 10]: 93%
- remaining activity at 10 µM [3, 10]: 94%
- remaining activity at 10 µM [4, 10]: 99%
- remaining activity at 10 µM [5, 10]: 116%
- remaining activity at 10 µM [6, 10]: 82%
- remaining activity at 10 µM [7, 10]: 93%
- remaining activity at 10 µM [8, 10]: 93%

Structure (SMILES): Fc1ccc2ncnc(NCCc3ccc(Cl)cc3)c2c1 [5at, N-[2-(4-Chlorophenyl)Ethyl]-6-Fluoro-4-Quinazolinamine]
- remaining activity at 10 µM [1, 11]: 78%
- remaining activity at 10 µM [2, 11]: 79%
- remaining activity at 10 µM [3, 11]: 92%
- remaining activity at 10 µM [4, 11]: 73%
- remaining activity at 10 µM [5, 11]: 94%
- remaining activity at 10 µM [6, 11]: 79%
- remaining activity at 10 µM [7, 11]: 102%
- remaining activity at 10 µM [8, 11]: 92%

Structure (SMILES): Fc1ccc(CCNc2ncnc3ccc(F)cc23)cc1 [5as, 6-Fluoro-N-[2-(4-Fluorophenyl)Ethyl]-4-Quinazolinamine]
- remaining activity at 10 µM [1, 12]: 72%
- remaining activity at 10 µM [2, 12]: 87%
- remaining activity at 10 µM [3, 12]: 86%
- remaining activity at 10 µM [4, 12]: 85%
- remaining activity at 10 µM [5, 12]: 108%
- remaining activity at 10 µM [6, 12]: 85%
- remaining activity at 10 µM [7, 12]: 101%
- remaining activity at 10 µM [8, 12]: 96%
